# Data taken from patent publication US9732075B2, “Benzimidazole-proline derivatives” (IDORSIA PHARMACEUTICALS LTD, priority 2012, dated 2017).
# Legend:
# [1] = molecular target: human orexin-1 receptor (Homo sapiens (Human), UniProt O43613); test: In vitro assay: intracellular calcium measurements (FLIPR), antagonistic activity; assay type: cell-based; settings: CHO cells expressing human orexin-1 receptor, orexin-A agonist, geometric mean, read-out: IC50 Ox1
# Outline: (§1)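 Dye-loaded CHO cells expressing either human orexin receptor are exposed to test antagonist for 120 min, then stimulated with orexin-A at 3 nM.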
# [2] = molecular target: human orexin-2 receptor (Homo sapiens (Human), UniProt O43614); test: as above; assay type: cell-based; settings: CHO cells expressing human orexin-2 receptor, orexin-A agonist, geometric mean, read-out: IC50 Ox2
# Sequence of human orexin-2 receptor (O43614 whole entry): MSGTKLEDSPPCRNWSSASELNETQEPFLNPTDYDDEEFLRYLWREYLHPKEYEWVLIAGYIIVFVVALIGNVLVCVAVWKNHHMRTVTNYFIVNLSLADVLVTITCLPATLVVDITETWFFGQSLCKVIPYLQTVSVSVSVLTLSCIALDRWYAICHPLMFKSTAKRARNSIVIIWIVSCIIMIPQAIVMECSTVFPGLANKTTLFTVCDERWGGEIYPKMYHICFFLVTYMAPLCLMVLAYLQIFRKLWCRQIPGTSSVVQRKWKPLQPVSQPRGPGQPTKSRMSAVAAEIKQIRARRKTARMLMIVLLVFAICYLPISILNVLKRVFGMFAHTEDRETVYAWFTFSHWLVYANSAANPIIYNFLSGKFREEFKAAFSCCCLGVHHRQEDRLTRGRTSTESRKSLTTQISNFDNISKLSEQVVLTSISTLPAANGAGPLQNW
# Outline: as §1
# Sequence of human orexin-1 receptor (O43613 whole entry): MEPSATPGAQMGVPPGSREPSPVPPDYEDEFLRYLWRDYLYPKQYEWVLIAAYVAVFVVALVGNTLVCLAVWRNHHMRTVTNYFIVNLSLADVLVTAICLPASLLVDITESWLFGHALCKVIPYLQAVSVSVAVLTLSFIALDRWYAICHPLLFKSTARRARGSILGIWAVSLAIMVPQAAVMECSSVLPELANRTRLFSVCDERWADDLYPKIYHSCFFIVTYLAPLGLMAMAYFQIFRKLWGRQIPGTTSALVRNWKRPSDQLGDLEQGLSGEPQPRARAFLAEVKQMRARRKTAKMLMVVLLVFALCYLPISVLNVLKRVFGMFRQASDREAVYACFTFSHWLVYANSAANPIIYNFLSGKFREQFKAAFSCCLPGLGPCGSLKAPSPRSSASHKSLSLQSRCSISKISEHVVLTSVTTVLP
Structure (SMILES),IC50 [1],IC50 [2]
Cc1c(Cl)ccc2[nH]c([C@]3(C)CCCN3C(=O)c3cc(OC(F)(F)F)ccc3-n3nccn3)nc12 [Ex. 5.35],102 nM,99 nM
COc1ccc(-n2nccn2)c(C(=O)N2CCC[C@@]2(C)c2nc3c(C)c(Cl)ccc3[nH]2)c1F [Ex. 5.37],10 nM,16 nM
Cc1ccc(C(=O)N2CCC[C@@]2(C)c2nc3c(C)c(Cl)ccc3[nH]2)c(-n2nccn2)c1 [Ex. 5.38],4 nM,12 nM
COc1cc(C(=O)N2CCC[C@@]2(C)c2nc3c(C)c(Cl)ccc3[nH]2)c(-n2nccn2)cc1OC [Ex. 5.39],36 nM,20 nM
Cc1c(Cl)ccc2[nH]c([C@]3(C)CCCN3C(=O)c3cc(C(F)(F)F)ccc3-n3nccn3)nc12 [Ex. 5.40],44 nM,91 nM
Cc1cc(C(=O)N2CCC[C@@]2(C)c2nc3c(C)c(Cl)ccc3[nH]2)c(-n2nccn2)cc1C [Ex. 5.41],2 nM,2 nM
Cc1c(Cl)ccc2[nH]c([C@]3(C)CCCN3C(=O)c3ccccc3-n3cccn3)nc12 [Ex. 5.42],49 nM,75 nM
Cc1ccc(-n2cccn2)c(C(=O)N2CCC[C@@]2(C)c2nc3c(C)c(Cl)ccc3[nH]2)c1 [Ex. 5.43],3 nM,14 nM
Cc1ccc(-n2cccn2)c(C(=O)N2CCC[C@@]2(C)c2nc3c(C)c(Cl)ccc3[nH]2)n1 [Ex. 5.44],8 nM,29 nM
Cc1c(Cl)ccc2[nH]c([C@]3(C)CCCN3C(=O)c3cc(F)ccc3-n3nccn3)nc12 [Ex. 5.45],5 nM,12 nM
Cc1c(Cl)ccc2[nH]c([C@]3(C)CCCN3C(=O)c3ccccc3-n3nccn3)nc12 [Ex. 5.46],6 nM,14 nM
Cc1ccc(-n2nccn2)c(C(=O)N2CCC[C@@]2(C)c2nc3c(C)c(Cl)ccc3[nH]2)n1 [Ex. 5.47],5 nM,15 nM
Cc1c(Cl)ccc2[nH]c([C@]3(C)CCCN3C(=O)c3c(F)cccc3-n3nccn3)nc12 [Ex. 5.48],12 nM,25 nM
Cc1cccc2[nH]c([C@]3(C)CCCN3C(=O)c3cc(Cl)ccc3-n3nccn3)nc12 [Ex. 5.49],85 nM,114 nM
COc1ccc(-n2nccn2)c(C(=O)N2CCC[C@@]2(C)c2nc3c(C)cccc3[nH]2)c1 [Ex. 5.50],49 nM,33 nM
Cc1cc(C(=O)N2CCC[C@@]2(C)c2nc3c(C)cccc3[nH]2)c(-n2nccn2)cc1C [Ex. 5.51],10 nM,18 nM
Cc1cccc2[nH]c([C@]3(C)CCCN3C(=O)c3ccccc3-n3nccn3)nc12 [Ex. 5.52],107 nM,43 nM
Cc1cc2nc([C@]3(C)CCCN3C(=O)c3cc(Cl)ccc3-n3nccn3)[nH]c2cc1C [Ex. 5.53],24 nM,23 nM
COc1ccc(-n2nccn2)c(C(=O)N2CCC[C@@]2(C)c2nc3cc(C)c(C)cc3[nH]2)c1 [Ex. 5.54],33 nM,20 nM
COc1ccc(-n2nccn2)c(C(=O)N2CCC[C@@]2(C)c2nc3cc(C)c(C)cc3[nH]2)c1F [Ex. 5.55],113 nM,202 nM
Cc1ccc(C(=O)N2CCC[C@@]2(C)c2nc3cc(C)c(C)cc3[nH]2)c(-n2nccn2)c1 [Ex. 5.56],12 nM,15 nM

Structure (SMILES),IC50 [1],IC50 [2]
COc1cc(C(=O)N2CCC[C@@]2(C)c2nc3cc(C)c(C)cc3[nH]2)c(-n2nccn2)cc1OC [Ex. 5.57],57 nM,55 nM
Cc1cc(C(=O)N2CCC[C@@]2(C)c2nc3cc(C)c(C)cc3[nH]2)c(-n2nccn2)cc1C [Ex. 5.58],3 nM,6 nM
Cc1ccc(-n2cccn2)c(C(=O)N2CCC[C@@]2(C)c2nc3cc(C)c(C)cc3[nH]2)c1 [Ex. 5.59],42 nM,84 nM
Cc1cc2nc([C@]3(C)CCCN3C(=O)c3cc(F)ccc3-n3nccn3)[nH]c2cc1C [Ex. 5.60],156 nM,54 nM
Cc1cc2nc([C@]3(C)CCCN3C(=O)c3ccccc3-n3nccn3)[nH]c2cc1C [Ex. 5.61],112 nM,26 nM
Cc1ccc(-n2nccn2)c(C(=O)N2CCC[C@@]2(C)c2nc3cc(C)c(C)cc3[nH]2)n1 [Ex. 5.62],35 nM,130 nM
COc1cc2nc([C@]3(C)CCCN3C(=O)c3cc(Cl)ccc3-n3nccn3)[nH]c2cc1OC [Ex. 5.64],17 nM,19 nM
COc1cc2nc([C@]3(C)CCCN3C(=O)c3cc(F)ccc3-n3nccn3)[nH]c2cc1OC [Ex. 5.65],200 nM,154 nM
COc1cc2nc([C@]3(C)CCCN3C(=O)c3c(F)cccc3-n3nccn3)[nH]c2cc1OC [Ex. 5.66],872 nM,458 nM
COc1cc2nc([C@]3(C)CCCN3C(=O)c3c(-n4nccn4)ccc(C)c3F)[nH]c2cc1OC [Ex. 5.68],141 nM,150 nM
COc1cc2nc([C@]3(C)CCCN3C(=O)c3c(-n4nccn4)ccc(OC)c3F)[nH]c2cc1OC [Ex. 5.69],414 nM,1200 nM
COc1cc2nc([C@]3(C)CCCN3C(=O)c3ccc(C)cc3-n3nccn3)[nH]c2cc1OC [Ex. 5.70],31 nM,83 nM
COc1cc2nc([C@]3(C)CCCN3C(=O)c3cc(C(F)(F)F)ccc3-n3nccn3)[nH]c2cc1OC [Ex. 5.71],56 nM,22 nM
COc1cc2nc([C@]3(C)CCCN3C(=O)c3cc(C)c(C)cc3-n3nccn3)[nH]c2cc1OC [Ex. 5.72],19 nM,16 nM
COc1cc2nc([C@]3(C)CCCN3C(=O)c3ccccc3-n3nccn3)[nH]c2cc1OC [Ex. 5.73],98 nM,57 nM
COc1cc2nc([C@]3(C)CCCN3C(=O)c3nc(C)sc3-c3ccc(C(F)(F)F)cc3)[nH]c2cc1OC [Ex. 5.74],592 nM,414 nM
COc1cc2nc([C@]3(C)CCCN3C(=O)c3sc(C)nc3-c3ccc(C)cc3)[nH]c2cc1OC [Ex. 5.75],300 nM,126 nM
COc1cc2nc([C@]3(C)CCCN3C(=O)c3nc(C)sc3-c3cc(F)cc(F)c3)[nH]c2cc1OC [Ex. 5.76],33 nM,47 nM
COc1ccc(-c2sc(C)nc2C(=O)N2CCC[C@@]2(C)c2nc3cc(OC)c(OC)cc3[nH]2)cn1 [Ex. 5.77],64 nM,153 nM
COc1cc2nc([C@]3(C)CCCN3C(=O)c3nc(C)sc3-c3ccc(F)cc3)[nH]c2cc1OC [Ex. 5.78],31 nM,72 nM
COc1cc2nc([C@]3(C)CCCN3C(=O)c3nc(C)sc3-c3ccc(Cl)cc3)[nH]c2cc1OC [Ex. 5.79],43 nM,97 nM

Structure (SMILES),IC50 [1],IC50 [2]
COc1cc2nc([C@]3(C)CCCN3C(=O)c3ncsc3-c3cccc(Cl)c3)[nH]c2cc1OC [Ex. 5.80],548 nM,360 nM
COc1cc2nc([C@]3(C)CCCN3C(=O)c3ccccc3-n3cccn3)[nH]c2cc1OC [Ex. 5.81],258 nM,130 nM
COc1cc2nc([C@]3(C)CCCN3C(=O)c3cc(C)ccc3-n3cccn3)[nH]c2cc1OC [Ex. 5.82],27 nM,15 nM
COc1cc2nc([C@]3(C)CCCN3C(=O)c3nc(C)ccc3-n3cccn3)[nH]c2cc1OC [Ex. 5.83],426 nM,104 nM
COc1cc2nc([C@]3(C)CCCN3C(=O)c3cc(OC(F)(F)F)ccc3-n3nccn3)[nH]c2cc1OC [Ex. 5.84],138 nM,76 nM
COc1cc2nc([C@]3(C)CCCN3C(=O)c3nc(C)ccc3-n3nccn3)[nH]c2cc1OC [Ex. 5.85],316 nM,114 nM
COc1cc(C(=O)N2CCC[C@@]2(C)c2nc3cc(OC)c(OC)cc3[nH]2)c(-n2nccn2)cc1OC [Ex. 5.86],94 nM,85 nM
COc1cc2nc([C@]3(C)CCCN3C(=O)c3ccccc3-c3cccc(C)c3)[nH]c2cc1OC [Ex. 5.87],203 nM,157 nM
COc1cc2nc([C@]3(C)CCCN3C(=O)c3ccccc3-c3ccc(C)cc3)[nH]c2cc1OC [Ex. 5.88],192 nM,166 nM
COc1cc2nc([C@]3(C)CCCN3C(=O)c3cnc(C)nc3-c3cccc(C)c3)[nH]c2cc1OC [Ex. 5.89],148 nM,119 nM
COc1cc2nc([C@]3(C)CCCN3C(=O)c3cncnc3-c3ccccc3)[nH]c2cc1OC [Ex. 5.90],232 nM,473 nM
Cc1ccc(-c2ccc(F)cc2C)c(C(=O)N2CCC[C@@]2(C)c2nc3cc(C)c(C)cc3[nH]2)c1 [Ex. 5.91],217 nM,1290 nM
COc1ccccc1-c1ccc(C)cc1C(=O)N1CCC[C@@]1(C)c1nc2cc(C)c(C)cc2[nH]1 [Ex. 5.92],62 nM,177 nM
COc1cccc(-c2ccc(C)cc2C(=O)N2CCC[C@@]2(C)c2nc3cc(C)c(C)cc3[nH]2)c1 [Ex. 5.93],15 nM,19 nM
COc1ccc(-c2ccc(C)cc2C(=O)N2CCC[C@@]2(C)c2nc3cc(C)c(C)cc3[nH]2)cc1 [Ex. 5.94],14 nM,37 nM
Cc1ccc(-c2ccccc2F)c(C(=O)N2CCC[C@@]2(C)c2nc3cc(C)c(C)cc3[nH]2)c1 [Ex. 5.95],11 nM,29 nM
Cc1ccc(-c2ccc(F)cc2)c(C(=O)N2CCC[C@@]2(C)c2nc3cc(C)c(C)cc3[nH]2)c1 [Ex. 5.96],13 nM,32 nM
Cc1ccc(-c2cccc(F)c2)c(C(=O)N2CCC[C@@]2(C)c2nc3cc(C)c(C)cc3[nH]2)c1 [Ex. 5.97],6 nM,11 nM
Cc1ccc(-c2ccccc2C)c(C(=O)N2CCC[C@@]2(C)c2nc3cc(C)c(C)cc3[nH]2)c1 [Ex. 5.98],120 nM,264 nM
Cc1cccc(-c2ccc(C)cc2C(=O)N2CCC[C@@]2(C)c2nc3cc(C)c(C)cc3[nH]2)c1 [Ex. 5.99],6 nM,11 nM
